Source: PubChem BioAssay (NCI)
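These data come from cells grown in 96-well plates and exposed to compound for 48 hours at five concentrations. At the GI50, growth is halved. Definition used: TGI = concentration required for complete inhibition of growth.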

Key:
Test in all cases: growth of human tumour cells (NCI), 48 h
[1] = test system: A549 NSCLC
[2] = test system: NCI-H23 lung
[3] = test system: RPMI-8226 leukemia
[4] = test system: NCI-H522 lung
[5] = test system: MCF7 breast
[6] = test system: MDA-MB-435
[7] = test system: A498 renal
[8] = test system: SF-295 CNS
[9] = test system: 786-0 renal
[10] = test system: SNB-75 CNS
[11] = test system: SK-MEL-2 melanoma
[12] = test system: TK-10 renal
[13] = test system: SR leukemia
[14] = test system: UACC-257 melanoma
[15] = test system: MDA-MB-231 breast
[16] = test system: HS 578T breast
[17] = test system: U251 CNS
[18] = test system: RXF 393 renal
[19] = test system: SK-OV-3 ovarian
[20] = test system: HL-60(TB) leukemia
[21] = test system: SK-MEL-5 melanoma
[22] = test system: OVCAR-3 ovarian
[23] = test system: HCT-116 colon
[24] = test system: HOP-92 NSCLC
[25] = test system: BT-549 breast
[26] = test system: SN12C renal
[27] = test system: NCI/ADR-RES ovarian

Structure (SMILES): Cc1nc2cccc(NCc3ccc(C(=O)NO)cc3)c2c(=O)n1-c1ccccc1
- TGI [1]: 5170 nM
- GI50 [2]: 1630 nM
- TGI [2]: 3180 nM
- GI50 [3]: 2390 nM
- TGI [3]: > 100000 nM
- GI50 [4]: 1290 nM
- TGI [4]: 2610 nM
- GI50 [5]: 2890 nM
- TGI [5]: 38900 nM
- GI50 [6]: 1630 nM
- TGI [6]: 3280 nM
- GI50 [7]: 1700 nM
- TGI [7]: 3280 nM
- GI50 [8]: 1760 nM
- TGI [8]: 3540 nM
- GI50 [9]: 1810 nM
- TGI [9]: 3780 nM
- GI50 [10]: 1970 nM
- TGI [10]: 5460 nM
- GI50 [11]: 2360 nM
- TGI [11]: 5120 nM
- GI50 [12]: 1760 nM
- TGI [12]: 6070 nM
- GI50 [13]: 1430 nM
- TGI [13]: > 100000 nM
- GI50 [14]: 2110 nM
- TGI [14]: 4980 nM
- GI50 [15]: 2500 nM
- TGI [15]: 6790 nM
- GI50 [16]: 3040 nM
- TGI [16]: > 100000 nM
- GI50 [17]: 1560 nM
- TGI [17]: 3040 nM
- GI50 [18]: 1410 nM
- TGI [18]: 2790 nM
- GI50 [19]: 2710 nM
- TGI [19]: 8280 nM
- GI50 [20]: 2870 nM
- TGI [20]: 10200 nM
- GI50 [21]: 1640 nM
- TGI [21]: 3100 nM
- GI50 [22]: 2160 nM
- TGI [22]: 4900 nM
- GI50 [23]: 1350 nM
- TGI [23]: 4760 nM
- GI50 [24]: 1930 nM
- TGI [24]: 4460 nM
- GI50 [25]: 2800 nM
- TGI [25]: 8100 nM
- GI50 [26]: 2140 nM
- TGI [26]: 5380 nM
- GI50 [27]: 1530 nM
- TGI [27]: 7160 nM
